Test results reported in US8785429B2, “Dihydropyrrolonaphthyridinone compounds as inhibitors of JAK” (Takeda Pharmaceutical Company Limited, priority 2009, dated 2014).

What was measured:
JAK3 = target: T1, JAK3 (Homo sapiens, UniProt P52333); assay: Assay for JAK3 Inhibition (phosphorylation of FAM-labeled substrate, Caliper LC-3000); type: biochemical; settings: −log10(IC50), IC50 is the molar concentration at 50% inhibition; read-out: JAK3 pIC50 (converted)
T1 construct: purchased Invitrogen
T1 sequence (P52333 1-1124): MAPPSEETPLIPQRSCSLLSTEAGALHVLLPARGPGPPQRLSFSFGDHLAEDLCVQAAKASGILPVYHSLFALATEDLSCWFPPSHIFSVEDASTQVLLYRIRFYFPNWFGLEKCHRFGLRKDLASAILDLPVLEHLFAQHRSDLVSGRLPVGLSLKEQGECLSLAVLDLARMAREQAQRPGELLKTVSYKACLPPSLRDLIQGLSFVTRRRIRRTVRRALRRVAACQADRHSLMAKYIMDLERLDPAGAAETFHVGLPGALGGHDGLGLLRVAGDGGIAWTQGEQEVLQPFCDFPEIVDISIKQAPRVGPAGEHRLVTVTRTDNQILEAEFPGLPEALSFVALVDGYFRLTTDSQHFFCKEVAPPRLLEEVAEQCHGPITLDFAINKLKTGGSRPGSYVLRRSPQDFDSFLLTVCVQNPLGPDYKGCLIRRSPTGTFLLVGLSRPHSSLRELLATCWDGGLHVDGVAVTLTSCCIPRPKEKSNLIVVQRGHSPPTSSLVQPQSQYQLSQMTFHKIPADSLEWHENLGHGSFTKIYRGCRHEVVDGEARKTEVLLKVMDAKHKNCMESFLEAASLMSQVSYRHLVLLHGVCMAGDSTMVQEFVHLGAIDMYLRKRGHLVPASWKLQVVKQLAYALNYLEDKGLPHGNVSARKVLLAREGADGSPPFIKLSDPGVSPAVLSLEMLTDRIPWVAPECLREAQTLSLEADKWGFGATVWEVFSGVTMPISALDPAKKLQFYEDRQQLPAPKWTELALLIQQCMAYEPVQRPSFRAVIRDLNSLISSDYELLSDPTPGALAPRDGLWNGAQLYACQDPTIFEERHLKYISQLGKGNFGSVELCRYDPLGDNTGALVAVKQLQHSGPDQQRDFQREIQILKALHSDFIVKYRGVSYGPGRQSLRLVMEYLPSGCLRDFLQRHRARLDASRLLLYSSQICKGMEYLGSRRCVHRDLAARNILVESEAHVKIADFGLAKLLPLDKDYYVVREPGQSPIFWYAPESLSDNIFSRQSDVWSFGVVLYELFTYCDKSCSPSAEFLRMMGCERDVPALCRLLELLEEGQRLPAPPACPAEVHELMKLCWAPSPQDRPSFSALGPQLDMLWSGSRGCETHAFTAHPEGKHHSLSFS
Description: (§1) A compound's ability to inhibit JAK activity may be assessed using a variety of methods, including in vitro and in vivo assays. The following in vitro assays measure a test compound's ability to inhibit JAK2- and JAK3-mediated phosphorylation of FAM-labeled JAK-specific substrates.
(§2) Purified JAK2 and JAK3 proteins were purchased from Invitrogen. JAK2 and JAK3 inhibition is determined using a black 384-well-plate format in buffer containing 50 mM HEPES, 10 mM NaCl, 10 mM MgCl2, 0.2 mM EDTA, 0.01% EDA (Brij® 35), 1 mM DTT, 0.1 mg/mL BSA at pH 7.3. Each test compound is prepared in DMSO using 2-fold serial dilutions for 11 data points and is added to the buffer so that each dilution contains 3% DMSO.
(§3) To each well is added 2 μL of 3 μM 5FAM-KKKKEEIYFFFG-NH2 and 15 μM ATP (in buffer), 2 μL of diluted test compound (3% DMSO in medium), and 2 μL of 1.2 nM JAK3 in buffer. The reaction mixture is incubated at room temperature for 60 min and is quenched by adding 50 mM HEPES, 30 mM EDTA, and 0.1% Tx-100 (pH 7.3). To quantify the fluorescent-labeled substrate and product following reaction, the test plate is loaded on a Caliper LC-3000, which measures percent of conversion by microfluidic-based separation.
(§4) Corresponding IC50 values are calculated by non-linear curve fitting of the compound concentrations and percent of inhibition to the standard IC50 equation.

JAK2 = target: T2, JAK2 (Homo sapiens, UniProt O60674); assay: Assay for JAK2 Inhibition (phosphorylation of FAM-labeled substrate, Caliper LC-3000); type: biochemical; settings: −log10(IC50), IC50 is the molar concentration at 50% inhibition; read-out: JAK2 pIC50 (converted)
T2 construct: purchased Invitrogen
T2 sequence (O60674 whole entry): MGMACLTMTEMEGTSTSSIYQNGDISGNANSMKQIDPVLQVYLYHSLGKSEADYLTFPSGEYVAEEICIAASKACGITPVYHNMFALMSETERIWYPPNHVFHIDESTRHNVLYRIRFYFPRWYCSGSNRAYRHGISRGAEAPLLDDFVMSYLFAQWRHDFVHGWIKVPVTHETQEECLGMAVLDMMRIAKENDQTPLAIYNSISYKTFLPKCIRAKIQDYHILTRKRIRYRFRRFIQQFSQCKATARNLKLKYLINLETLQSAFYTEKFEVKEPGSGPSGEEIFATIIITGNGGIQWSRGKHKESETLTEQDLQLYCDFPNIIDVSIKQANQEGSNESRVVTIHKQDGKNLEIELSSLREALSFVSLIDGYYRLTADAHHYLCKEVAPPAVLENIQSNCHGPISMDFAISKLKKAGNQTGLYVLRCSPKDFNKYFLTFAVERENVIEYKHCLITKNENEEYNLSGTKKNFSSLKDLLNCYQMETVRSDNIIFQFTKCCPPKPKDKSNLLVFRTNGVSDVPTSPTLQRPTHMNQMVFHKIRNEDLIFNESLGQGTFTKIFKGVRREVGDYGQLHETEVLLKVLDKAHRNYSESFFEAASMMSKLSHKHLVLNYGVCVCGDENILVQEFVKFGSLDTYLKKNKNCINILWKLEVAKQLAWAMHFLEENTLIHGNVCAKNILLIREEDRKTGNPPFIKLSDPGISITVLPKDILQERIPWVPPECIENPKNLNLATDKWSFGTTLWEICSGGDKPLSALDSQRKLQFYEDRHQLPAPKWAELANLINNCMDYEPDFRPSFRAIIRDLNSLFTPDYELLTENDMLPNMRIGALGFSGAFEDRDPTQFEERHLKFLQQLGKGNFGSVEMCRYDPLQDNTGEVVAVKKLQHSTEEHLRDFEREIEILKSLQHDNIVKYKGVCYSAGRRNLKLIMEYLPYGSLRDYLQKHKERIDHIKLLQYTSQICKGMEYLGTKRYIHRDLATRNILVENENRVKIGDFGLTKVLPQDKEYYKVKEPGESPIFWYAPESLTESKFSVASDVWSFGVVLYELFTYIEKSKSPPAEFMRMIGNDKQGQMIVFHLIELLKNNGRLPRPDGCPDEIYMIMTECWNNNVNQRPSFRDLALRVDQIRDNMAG
Description: as §1, §2
as §3, with “45” for “15”, “0.6” for “1.2”, “JAK2” for “JAK3”, “HEPeX,” for “HEPES,”
as §4

IC50 (JAK3)	IC50 (JAK2)	Structure (SMILES)
10 nM	200 nM	CC(C)[C@H](C(=O)NCC#N)N1Cc2c(Cl)cnc3[nH]cc(c23)C1=O [Example 32, (R)-2-(6-chloro-3-oxopyrrolo[4,3,2-de][2,6]naphthyridin-4(1H,3H,5H)-yl)-N-(cyanomethyl)-3-methylbutanamide]
316 nM	2510 nM	CC(C)[C@H](C(=O)Nc1ccc(C#N)cc1)N1Cc2c(Cl)cnc3[nH]cc(c23)C1=O [Example 35, (R)-2-(6-chloro-3-oxopyrrolo[4,3,2-de][2,6]naphthyridin-4(1H,3H,5H)-yl)-N-(4-cyanophenyl)-3-methylbutanamide]
126 nM	1000 nM	CC(C)[C@H](C(=O)Nc1cccc(C#N)c1)N1Cc2c(Cl)cnc3[nH]cc(c23)C1=O [Example 36, (R)-2-(6-chloro-3-oxopyrrolo[4,3,2-de][2,6]naphthyridin-4(1H,3H,5H)-yl)-N-(3-cyanophenyl)-3-methylbutanamide]
31.6 nM	1000 nM	CC[C@H](CC#N)NC(=O)[C@@H](C(C)C)N1Cc2c(Cl)cnc3[nH]cc(c23)C1=O [Example 38, (R)-2-(6-chloro-3-oxopyrrolo[4,3,2-de][2,6]naphthyridin-4(1H,3H,5H)-yl)-N—((R)-1-cyanobutan-2-yl)-3-methylbutanamide]

The remaining lines, values behind:

Structure (SMILES)	IC50 (JAK3)	IC50 (JAK2)
CC(C)[C@H](C(=O)N1CCC(C#N)C1)N1Cc2c(Cl)cnc3[nH]cc(c23)C1=O (stereo partly drawn) [Example 33, 1-((R)-2-(6-chloro-3-oxopyrrolo[4,3,2-de][2,6]naphthyridin-4(1H,3H,5H)-yl)-3-methylbutanoyl)pyrrolidine-3-carbonitrile]	39.8 nM	794 nM
CC(C)[C@H](C(=O)N1CCC(C#N)CC1)N1Cc2c(Cl)cnc3[nH]cc(c23)C1=O [Example 34, (R)-1-(2-(6-chloro-3-oxopyrrolo[4,3,2-de][2,6]naphthyridin-4(1H,3H,5H)-yl)-3-methylbutanoyl)piperidine-4-carbonitrile]	15.8 nM	251 nM
CC[C@@H](CC#N)NC(=O)[C@@H](C(C)C)N1Cc2c(Cl)cnc3[nH]cc(c23)C1=O [Example 37, (R)-2-(6-chloro-3-oxopyrrolo[4,3,2-de][2,6]naphthyridin-4(1H,3H,5H)-yl)-N—((S)-1-cyanobutan-2-yl)-3-methylbutanamide]	63.1 nM	1580 nM
CC(C)[C@H](C(=O)N1CC(C#N)C1)N1Cc2c(Cl)cnc3[nH]cc(c23)C1=O [Example 39, (R)-1-(2-(6-chloro-3-oxopyrrolo[4,3,2-de][2,6]naphthyridin-4(1H,3H,5H)-yl)-3-methylbutanoyl)azetidine-3-carbonitrile]	2 nM	31.6 nM
CC(C)(C)[C@H](C(=O)NCCC#N)N1Cc2c(Cl)cnc3[nH]cc(c23)C1=O [Example 40, (R)-2-(6-chloro-3-oxopyrrolo[4,3,2-de][2,6]naphthyridin-4(1H,3H,5H)-yl)-N-(2-cyanoethyl)-3,3-dimethylbutanamide]	50.1 nM	1260 nM
CC(C)(C)[C@H](C(=O)N1CC(C#N)C1)N1Cc2c(Cl)cnc3[nH]cc(c23)C1=O [Example 41, (R)-1-(2-(6-chloro-3-oxopyrrolo[4,3,2-de][2,6]naphthyridin-4(1H,3H,5H)-yl)-3,3-dimethylbutanoyl)azetidine-3-carbonitrile]	3.98 nM	50.1 nM
CC(C)[C@H](C(=O)N1CC(C#N)C1)N1Cc2c(F)cnc3[nH]cc(c23)C1=O [Example 42, (R)-1-(2-(6-fluoro-3-oxopyrrolo[4,3,2-de][2,6]naphthyridin-4(1H,3H,5H)-yl)-3-methylbutanoyl)azetidine-3-carbonitrile]	6.31 nM	126 nM
CC(C)[C@H](C(=O)N(C)CCC#N)N1Cc2c(F)cnc3[nH]cc(c23)C1=O [Example 43]	794 nM	12600 nM
CC(C)[C@H](C(=O)NC1CCOC1)N1Cc2c(F)cnc3[nH]cc(c23)C1=O (stereo partly drawn) [Example 44, (2R)-2-(6-fluoro-3-oxopyrrolo[4,3,2-de][2,6]naphthyridin-4(1H,3H,5H)-yl)-3-methyl-N-(tetrahydrofuran-3-yl)butanamide]	126 nM	1580 nM
